Measurements reported in ChEMBL document CHEMBL5052833, “Ube2k modulators and methods for their use” (2021).
Calls of active or inactive are those of the source. No cut-off for these calls is given here.

What was measured:
[1] = biological target: T1, Ubiquitin-conjugating enzyme E2 K (Homo sapiens) (UniProt P61086); assay: Stabilization of mono-ubiquitinated UBE2K (unknown origin) at 0.4 to 100 uM assessed as decrease in poly-Ub measured by poly-ubiquitination assay; settings: dose 0.4-100 µM
T1 sequence (whole entry): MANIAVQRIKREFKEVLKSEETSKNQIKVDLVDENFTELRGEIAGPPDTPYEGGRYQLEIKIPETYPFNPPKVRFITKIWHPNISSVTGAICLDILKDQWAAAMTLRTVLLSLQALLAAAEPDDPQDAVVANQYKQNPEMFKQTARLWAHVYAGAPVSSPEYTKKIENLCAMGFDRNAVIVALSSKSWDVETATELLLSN

[2] = biological target: T1, Ubiquitin-conjugating enzyme E2 K (Homo sapiens); assay: Stabilization of mono-ubiquitinated UBE2K (unknown origin) at 500 uM assessed as decrease in poly-Ub measured by poly-ubiquitination assay
[3] = species: Homo sapiens; assay: Stabilization of mono-ubiquitinated UBE2D4 (unknown origin) at 500 uM assessed as decrease in poly-Ub measured by poly-ubiquitination assay
[4] = biological target: Ubiquitin-conjugating enzyme E2 E1 (Homo sapiens) (UniProt P51965); assay: Stabilization of mono-ubiquitinated UBE2E1 (unknown origin) at 500 uM assessed as decrease in poly-Ub measured by poly-ubiquitination assay
[5] = species: Homo sapiens; assay: Stabilization of mono-ubiquitinated UBE2Q2 (unknown origin) at 500 uM assessed as decrease in poly-Ub measured by poly-ubiquitination assay
[6] = species: Homo sapiens; assay: Stabilization of mono-ubiquitinated UBE2S (unknown origin) at 500 uM assessed as decrease in poly-Ub measured by poly-ubiquitination assay
[7] = species: Homo sapiens; assay: Stabilization of mono-ubiquitinated UBE2W (unknown origin) at 500 uM assessed as decrease in poly-Ub measured by poly-ubiquitination assay
[8] = biological target: T1, Ubiquitin-conjugating enzyme E2 K (Homo sapiens); assay: Stabilization of UBE2K (unknown origin) at 1 to 1000 uM assessed as modulation of ubiquitin discharge measured by ELISA assay; settings: dose 1-1000 µM
[9] = system: K562; assay: Antitumor activity against human K562 cells xenografted female SCID Bg mouse assessed as tumor growth inhibition at 25 mg/kg, po administered twice a day for 12 consecutive days and measured on day 10; format: functional; settings: 240 h, time 10 day, read-out: TGI
[10] = system: K562; assay: Antitumor activity against human K562 cells xenografted female SCID Bg mouse assessed as tumor growth inhibition at 25 mg/kg, po administered twice a day for 12 consecutive days and measured on day 12; format: functional; settings: 288 h, time 12 day, read-out: TGI
[11] = biological target: T1, Ubiquitin-conjugating enzyme E2 K (Homo sapiens); assay: Stabilization of mono-ubiquitinated UBE2K (unknown origin) at 0.25 to 25 uM assessed as decrease in poly-Ub measured by poly-ubiquitination assay; settings: dose 0.25-25 µM
[12] = system: MV4-11; assay: Antitumor activity against human MV4-11 cells xenografted nude mouse assessed as tumor growth inhibition at 75 mg/kg, po administered twice a day for 24 days; format: functional; settings: MV4-11, po, 576 h, time 24 day, read-out: TGI
[13] = system: MV4-11; assay: Antitumor activity against human MV4-11 cells xenografted nude mouse assessed as tumor growth inhibition at 150 mg/kg, po administered twice a day for 24 days; format: functional; settings: MV4-11, po, 576 h, time 24 day, read-out: TGI
[14] = biological target: T1, Ubiquitin-conjugating enzyme E2 K (Homo sapiens); assay: Stabilization of mono-ubiquitinated UBE2K (unknown origin) at 0.25 to 50 uM assessed as decrease in poly-Ub measured by poly-ubiquitination assay; settings: dose 0.25-50 µM
[15] = biological target: T1, Ubiquitin-conjugating enzyme E2 K (Homo sapiens); assay: Stabilization of mono-ubiquitinated UBE2K (unknown origin) at 16 to 100 uM assessed as decrease in poly-Ub measured by poly-ubiquitination assay; settings: dose 16-100 µM

Sequence of Ubiquitin-conjugating enzyme E2 E1 (Homo sapiens) (P51965 whole entry): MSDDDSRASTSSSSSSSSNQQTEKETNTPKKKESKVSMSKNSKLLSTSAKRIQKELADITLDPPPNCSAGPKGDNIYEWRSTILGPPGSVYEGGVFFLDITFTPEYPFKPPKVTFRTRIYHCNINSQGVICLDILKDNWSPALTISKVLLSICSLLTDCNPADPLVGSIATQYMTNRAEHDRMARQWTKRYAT

Row | Structure (SMILES) | Activity [1] | Activity [2] | Activity [3] | Activity [4] | Activity [5] | Activity [6] | Activity [7] | Activity [8] | also measured
1 | COc1ccccc1-c1nc(CNC(=O)c2ccccc2OC(F)F)n[nH]1 | Active | Active | inactive | inactive | inactive | inactive | inactive | Active | –
2 | COc1ccc(F)cc1-c1nc(CNC(=O)c2cc(F)ccc2OC(F)(F)F)n[nH]1 | – | – | – | – | – | – | – | – | inhibition in vivo at 25 mg/kg [9]: 73.6%; inhibition in vivo at 25 mg/kg [10]: 86.3%
3 | COc1ccccc1-c1nc(CNC(=O)c2cc(C#N)ccc2OC(F)F)n[nH]1 | – | – | – | – | – | – | – | Active | –
4 | O=C(NCc1cc(-c2ccccc2O)[nH]n1)c1ccccc1OC(F)(F)F | Active | – | – | – | – | – | – | Active | –
5 | O=C(NCc1cc(-c2cccs2)[nH]n1)c1ccccc1OC(F)F | – | – | – | – | – | – | – | – | Activity [11]: Active
6 | COc1ccc(F)cc1-c1nc(CNC(=O)c2ccccc2OC(F)F)n[nH]1 | – | Active | inactive | inactive | inactive | inactive | inactive | – | –
7 | COc1ccc(F)cc1-c1nc(CNC(=O)c2cccc3c2OC(F)(F)O3)n[nH]1 | – | – | – | – | – | – | – | Active | inhibition in vivo at 75 mg/kg [12]: 43%; inhibition in vivo at 150 mg/kg [13]: 37%
8 | O=C(NCc1cc(-c2cccs2)[nH]n1)c1ccccc1OC(F)(F)F | – | – | – | – | – | – | – | – | Activity [14]: Active
9 | COc1ccccc1-c1cc(CNC(=O)c2ccccc2OC(F)(F)F)n[nH]1 | Active | Active | inactive | inactive | inactive | inactive | inactive | Active | –
10 | O=C(NCc1cc(-c2cccs2)[nH]n1)c1ccccc1C(F)(F)F | – | – | – | – | – | – | – | – | Activity [15]: Active
